Results published in PubChem BioAssay (NCI).
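Each compound was tested at five concentrations against cells in 96-well plates for 48 hours. GI50 = concentration required for 50% inhibition of growth. At the TGI there is no net growth.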

What was measured:
Experiment in all cases: inhibition of tumour cell growth, NCI panel, 48 h
[1] = test system: K-562 leukemia
[2] = test system: ACHN renal
[3] = test system: M14 melanoma
[4] = test system: SF-268 CNS
[5] = test system: U251 CNS
[6] = test system: NCI-H226 lung
[7] = test system: TK-10 renal
[8] = test system: LOX IMVI melanoma
[9] = test system: T-47D breast
[10] = test system: UACC-62 melanoma

Row | Compound | GI50 [1] [µM] | TGI [1] [µM] | GI50 [2] [µM] | TGI [2] [µM] | GI50 [3] [µM] | TGI [3] [µM] | GI50 [4] [µM] | TGI [4] [µM] | GI50 [5] [µM] | TGI [5] [µM] | GI50 [6] [µM] | TGI [6] [µM] | GI50 [7] [µM] | TGI [7] [µM] | GI50 [8] [µM] | TGI [8] [µM] | GI50 [9] [µM] | TGI [9] [µM] | GI50 [10] [µM] | TGI [10] [µM]
1 | H-HIIKKIRTWYRKAWHVLGKV-NH2 | 6.56 | > 100 | 13.2 | 28.6 | 4.17 | 22.8 | 3.43 | 19.8 | 7.17 | > 100 | 4.15 | 39.2 | 3.24 | 15.6 | 21.7 | 82.3 | – | – | – | –
2 | O=C(O)c1c[nH]c2c(OCc3ccccc3)c3ccccc3c(O)c2c1=O | 3.2 | > 100 | – | – | 12.6 | 25.2 | 22.4 | 64 | 2.43 | 5.19 | – | – | 22.8 | 43.4 | 3.24 | 11 | 21.5 | 73.8 | 3.97 | 13.3
3 | COc1ccc(C(=O)CC(=O)C(=O)Nc2ccc(C)c(C)c2)cc1 | – | > 87 | – | > 100 | – | > 100 | – | > 100 | – | > 100 | – | > 100 | – | > 100 | – | > 55.7 | – | – | – | > 100
4 | CCCCCNC(=O)c1c(O)[nH]c(=S)[nH]c1=O | – | > 100 | – | > 100 | – | > 100 | – | > 100 | – | > 100 | – | > 100 | – | > 100 | – | > 100 | – | – | – | > 100
5 | COc1ccc(-c2nc(N3CCOCC3)c3sc(CN(C)c4ncc(C(=O)NO)cn4)cc3n2)cn1 | < 0.01 | > 100 | < 0.01 | 0.0345 | – | – | 0.0178 | 0.204 | – | – | 0.0112 | 1.13 | – | – | – | – | < 0.01 | 0.0332 | – | –
6 | CCOC(=O)C(=O)Nc1c(C)cccc1C(C)C | – | > 100 | – | > 100 | – | > 100 | – | > 100 | – | > 100 | – | > 100 | – | > 100 | – | – | – | – | – | > 100
7 | CCOC(=O)C(C(=O)OCC)=C1N[C@H](C(=O)OCC)CS1 | – | > 100 | – | > 100 | – | > 100 | – | > 100 | – | > 100 | – | > 100 | – | – | – | > 100 | – | – | – | > 100
8 | C=C(C)[C@@H]1CC[C@]2(C(=O)O)CC[C@]3(C)[C@H](CC[C@@H]4[C@@]5(C)C/C(=C/c6ccc(OC)cc6)C(=O)C(C)(C)[C@@H]5CC[C@]43C)[C@@H]12 | 2.21 | > 100 | 2.77 | 10.5 | 1.67 | 3.9 | 2.85 | 17.4 | 1.86 | 5.68 | 1.85 | 4.3 | 2.6 | 20.7 | – | – | 2.84 | 26.7 | 1.44 | 3.13
9 | CS(=O)(=O)c1ccc(Oc2cc(F)cc(C#N)c2)c2c1[C@H](O)C(F)(F)C2 | > 100 | > 100 | > 100 | > 100 | > 100 | > 100 | > 100 | > 100 | > 100 | > 100 | > 100 | > 100 | > 100 | > 100 | > 100 | > 100 | > 100 | > 100 | – | –
10 | COc1ccccc1C(N)c1ccccc1 (centres undefined) | – | > 100 | – | > 100 | – | > 100 | – | > 100 | – | > 100 | – | > 100 | – | > 100 | – | > 100 | – | – | – | > 100
11 | COc1cc(-n2cnc(-c3ccc(Cl)cc3)c2)cc(OC)c1OC | 7.33 | 29.5 | 19.8 | 57.3 | 73 | > 100 | 22.9 | 63.2 | 22.2 | 57.8 | > 100 | > 100 | 15 | 37.4 | 18 | 34.3 | – | – | 62.4 | > 100
12 | CCOC(=O)N[C@@H]1C2CC(=O)C(O2)[C@@H]1OC (some centres undefined) | – | > 100 | – | > 100 | – | > 100 | – | > 100 | – | > 100 | – | > 100 | – | > 100 | – | > 100 | – | – | – | > 100
13 | COC(=O)CS(=O)c1ccccc1 (centres undefined) | – | > 100 | – | > 100 | – | > 100 | – | 91.6 | – | 98.6 | – | – | – | > 100 | – | 44.4 | – | – | – | > 100
14 | N#CCCSC(=S)C1CCCC1=N (centres undefined) | – | > 100 | – | > 100 | – | > 100 | – | > 100 | – | > 100 | – | > 100 | – | > 100 | – | – | – | > 100 | – | > 100
15 | c1ccc(CN2CCCCC(Sc3ccccc3)CC2)cc1 (centres undefined) | – | 35 | – | > 100 | – | 32 | – | > 100 | – | 31.7 | – | 85.2 | – | > 100 | – | 30.6 | – | – | – | > 100
16 | Cc1cc(=O)oc2c(OS(C)(=O)=O)c(OS(C)(=O)=O)ccc12 | – | > 100 | – | > 100 | – | > 100 | – | > 100 | – | > 100 | – | > 100 | – | > 100 | – | > 100 | – | – | – | > 100
17 | COc1ccc(C(=O)C(C(=O)C(=O)NC2C3CC4CC(C3)CC2C4)c2ccc(OC)cc2)cc1 (centres undefined) | – | > 100 | – | > 100 | – | > 100 | – | > 100 | – | > 100 | – | > 100 | – | > 100 | – | > 100 | – | – | – | > 100
18 | CCCCCCCCCCCCCCCCCC(=O)OCC(C[As](=O)(O)O)OC(=O)CCCCCCCCCCCCCCCCC (centres undefined) | – | > 100 | – | > 100 | – | > 100 | – | > 100 | – | > 100 | – | 70.4 | – | > 100 | – | – | – | – | – | > 100
19 | COC1=CC(c2ccc[nH]2)=N/C1=C\c1[nH]c(C)c(C(C)=O)c1C | 3.28 | > 45.4 | 0.67 | > 55.8 | – | – | 0.854 | > 100 | 1.19 | > 57.2 | 2.6 | > 82.1 | 1.06 | > 63.5 | – | – | 2.75 | 19.2 | – | –
